pIC50: −log10 of the molar value.
Molecular target: T1, HCV polymerase (Hepatitis C virus genotype 1b, UniProt P26663)
T1 construct: 2.5 pmoles (0.15 μg) HCV polymerase protein in a final volume of 75 μL
Test: HCV polymerase primer/template-directed transcription assay (32P-GTP incorporation, filter binding)
Type: biochemical
Conditions: recombinant HCV polymerase; 30 minutes at 30° C.; concentration giving 50% inhibition of polymerase-directed transcription; read-out: IC50
Summary of the method: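 IC50s come from triplicate cpm, refit with an enzyme-concentration (30 nM) correction when under 200 nM. Reactions ran 30 min at 30° C in Tris pH 7.2 with MgCl2, 1 μM GTP spiked with α-32P-GTP, biotin-dG12 primer and poly(rC)300 template, with 1% DMSO. Incorporated label was collected on DE filtermats and counted.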

T1 sequence (P26663 2420-3010): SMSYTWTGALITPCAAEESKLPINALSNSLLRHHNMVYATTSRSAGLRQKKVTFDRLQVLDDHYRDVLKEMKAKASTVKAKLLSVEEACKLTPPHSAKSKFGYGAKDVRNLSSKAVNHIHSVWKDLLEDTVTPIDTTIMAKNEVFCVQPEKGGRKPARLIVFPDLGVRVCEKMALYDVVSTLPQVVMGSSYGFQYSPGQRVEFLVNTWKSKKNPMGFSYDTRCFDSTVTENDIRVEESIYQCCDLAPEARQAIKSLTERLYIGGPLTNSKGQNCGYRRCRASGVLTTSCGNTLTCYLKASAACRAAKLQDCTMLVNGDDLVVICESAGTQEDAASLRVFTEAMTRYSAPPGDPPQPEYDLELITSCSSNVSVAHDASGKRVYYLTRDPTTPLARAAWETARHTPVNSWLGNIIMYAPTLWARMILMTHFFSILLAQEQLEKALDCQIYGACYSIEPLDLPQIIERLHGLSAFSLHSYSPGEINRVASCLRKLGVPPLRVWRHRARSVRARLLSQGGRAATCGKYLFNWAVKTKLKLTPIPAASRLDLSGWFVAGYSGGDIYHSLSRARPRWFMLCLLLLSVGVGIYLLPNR

SMILES	pIC50
COc1ccc(CCC2(C3CCCC3)CC(O)=C(Sc3nnc(-c4ccccc4)[nH]3)C(=O)O2)cc1Cl (stereo not drawn) [C(22), 6-[2-(3-Chloro-4-methoxy-phenyl)-ethyl]-6-cyclopentyl-3-(5-phenyl-4H-[1,2,4]triazol-3-ylsulfanyl)-dihydro-pyran-2,4-dione]	7.17
COc1ccc(CCC2(C3CCCC3)CC(O)=C(Sc3nnc(-c4ccc(O)cc4)[nH]3)C(=O)O2)cc1Cl (stereo not drawn) [C(23), 6-[2-(3-Chloro-4-methoxy-phenyl)-ethyl]-6-cyclopentyl-3-[5-(4-hydroxy-phenyl)-4H-[1,2,4]triazol-3-ylsulfanyl]-dihydro-pyran-2,4-dione]	7.30
CC(C)Oc1ccc(CCC2(C3CCCC3)CC(O)=C(Sc3nnc(-c4ccccc4)[nH]3)C(=O)O2)cc1F (stereo not drawn) [C(24), 6-Cyclopentyl-6-[2-(3-fluoro-4-isopropoxy-phenyl)-ethyl]-4-hydroxy-3-(5-phenyl-4H-[1,2,4]triazol-3-ylsulfanyl)-5,6-dihydro-pyran-2-one]	7.29
CC(C)Oc1ccc(CCC2(C3CCCC3)CC(O)=C(Sc3nc4cc(Cl)ccc4n3C(C)C)C(=O)O2)cc1Cl (stereo not drawn) [C(25), 6-[2-(3-Chloro-4-isopropoxy-phenyl)-ethyl]-3-(5-chloro-1-isopropyl-1H-benzoimidazol-2-ylsulfanyl)-6-cyclopentyl-4-hydroxy-5,6-dihydro-pyran-2-one]	7.70
CC(C)Oc1ccc(CCC2(C3CCCC3)CC(O)=C(Sc3nc4cc(Cl)ccc4[nH]3)C(=O)O2)cc1Cl (stereo not drawn) [C(26), 3-(5-Chloro-1H-benzoimidazol-2-ylsulfanyl)-6-[2-(3-chloro-4-isopropoxy-phenyl)-ethyl]-6-cyclopentyl-4-hydroxy-5,6-dihydro-pyran-2-one]	6.89
O=C1OC(CCC2CCCCC2)(C2CCCC2)CC(O)=C1Sc1nnc(-c2ccncc2)[nH]1 (stereo not drawn) [C(27), 6-(2-Cyclohexyl-ethyl)-6-cyclopentyl-4-hydroxy-3-(5-pyridin-4-yl-4H-[1,2,4]triazol-3-ylsulfanyl)-5,6-dihydro-pyran-2-one]	5.60
O=C1OC(CCC2CCCC2)(C2CCCC2)CC(O)=C1Sc1nnc(-c2ccncc2)[nH]1 (stereo not drawn) [C(28), 6-Cyclopentyl-6-(2-cyclopentyl-ethyl)-4-hydroxy-3-(5-pyridin-4-yl-4H-[1,2,4]triazol-3-ylsulfanyl)-5,6-dihydro-pyran-2-one]	5.10
CC(C)n1c(SC2=C(O)CC(CCC3CCCC3)(C3CCCC3)OC2=O)nc2cc(Cl)ccc21 (stereo not drawn) [C(29), 3-(5-Chloro-1-isopropyl-1H-benzoimidazol-2-ylsulfanyl)-6-cyclopentyl-6-(2-cyclopentyl-ethyl)-4-hydroxy-5,6-dihydro-pyran-2-one]	5.03
O=C1OC(CCCC2CCCCC2)(C2CCCC2)CC(O)=C1Sc1nnc(-c2ccncc2)[nH]1 (stereo not drawn) [C(30), 6-(3-Cyclohexyl-propyl)-6-cyclopentyl-4-hydroxy-3-(5-pyridin-4-yl-4H-[1,2,4]triazol-3-ylsulfanyl)-5,6-dihydro-pyran-2-one]	6.26
CC(C)n1c(SC2=C(O)CC(CCCC3CCCCC3)(C3CCCC3)OC2=O)nc2cc(Cl)ccc21 (stereo not drawn) [C(31), 3-(5-Chloro-1-isopropyl-1H-benzoimidazol-2-ylsulfanyl)-6-(3-cyclohexyl-propyl)-6-cyclopentyl-4-hydroxy-5,6-dihydro-pyran-2-one]	6.29
O=C1OC(CCCCC2CCCCC2)(C2CCCC2)CC(O)=C1Sc1nnc(-c2ccncc2)[nH]1 (stereo not drawn) [C(32), 6-(4-Cyclohexyl-butyl)-6-cyclopentyl-4-hydroxy-3-(5-pyridin-4-yl-4H-[1,2,4]triazol-3-ylsulfanyl)-5,6-dihydro-pyran-2-one]	6.57
COc1ccc(CCC2(C3CCCC3)CC(O)=C(Sc3nncn3C(C)(C)C)C(=O)O2)cc1Cl (stereo not drawn) [C(34), 3-[(4-tert-butyl-4H-1,2,4-triazol-3-yl)thio]-6-[2-(3-chloro-4-methoxyphenyl)ethyl]-6-cyclopentyl-4-hydroxy-5,6-dihydro-2H-pyran-2-one]	7.28
CCn1cnnc1SC1=C(O)CC(CCc2ccc(OC)c(Cl)c2)(C2CCCC2)OC1=O (stereo not drawn) [C(35), 6-[2-(3-chloro-4-methoxyphenyl)ethyl]-6-cyclopentyl-3-[(4-ethyl-4H-1,2,4-triazol-3-yl)thio]-4-hydroxy-5,6-dihydro-2H-pyran-2-one]	7.15
COc1ccc(CCC2(C3CCCC3)CC(O)=C(Sc3nncn3C(C)C)C(=O)O2)cc1Cl (stereo not drawn) [C(36), 6-[2-(3-chloro-4-methoxyphenyl)ethyl]-6-cyclopentyl-4-hydroxy-3-[(4-isopropyl-4H-1,2,4-triazol-3-yl)thio]-5,6-dihydro-2H-pyran-2-one]	7.10
COc1ccc(CCC2(C3CCCC3)CC(O)=C(Sc3nncn3-c3ccccc3)C(=O)O2)cc1Cl (stereo not drawn) [C(37), 6-[2-(3-chloro-4-methoxyphenyl)ethyl]-6-cyclopentyl-4-hydroxy-3-[(4-phenyl-4H-1,2,4-triazol-3-yl)thio]-5,6-dihydro-2H-pyran-2-one]	6.89
COc1ccc(CCC2(C3CCCC3)CC(O)=C(Sc3nnnn3C)C(=O)O2)cc1Cl (stereo not drawn) [C(38), 6-[2-(3-chloro-4-methoxyphenyl)ethyl]-6-cyclopentyl-4-hydroxy-3-[(1-methyl-1H-tetrazol-5-yl)thio]-5,6-dihydro-2H-pyran-2-one]	6.55
CCn1nnnc1SC1=C(O)CC(CCc2ccc(OC)c(Cl)c2)(C2CCCC2)OC1=O (stereo not drawn) [C(39), 6-[2-(3-chloro-4-methoxyphenyl)ethyl]-6-cyclopentyl-3-[(1-ethyl-1H-tetrazol-5-yl)thio]-4-hydroxy-5,6-dihydro-2H-pyran-2-one]	6.66
COc1ccc(CCC2(C3CCCC3)CC(O)=C(Sc3nc4cc(Cl)ccc4n3C(C)C)C(=O)O2)cc1Cl (stereo not drawn) [C(40), 3-[(5-chloro-1-isopropyl-1H-benzimidazol-2-yl)thio]-6-[2-(3-chloro-4-methoxyphenyl)ethyl]-6-cyclopentyl-4-hydroxy-5,6-dihydro-2H-pyran-2-one]	7.60
COc1ccc(CCC2(C3CCCC3)CC(O)=C(Sc3nc4ccccc4n3C)C(=O)O2)cc1Cl (stereo not drawn) [C(41), 6-[2-(3-chloro-4-methoxyphenyl)ethyl]-6-cyclopentyl-4-hydroxy-3-[(1-methyl-1H-benzimidazol-2-yl)thio]-5,6-dihydro-2H-pyran-2-one]	6.77
COc1ccc(CCC2(C3CCCC3)CC(O)=C(Sc3nnc(-c4ccco4)n3C)C(=O)O2)cc1Cl (stereo not drawn) [C(42), 6-[2-(3-chloro-4-methoxyphenyl)ethyl]-6-cyclopentyl-3-{[5-(2-furyl)-4-methyl-4H-1,2,4-triazol-3-yl]thio}-4-hydroxy-5,6-dihydro-2H-pyran-2-one]	7.89
COc1ccc(CCC2(C3CCCC3)CC(O)=C(Sc3nc4ncccc4[nH]3)C(=O)O2)cc1Cl (stereo not drawn) [C(43), 6-[2-(3-chloro-4-methoxyphenyl)ethyl]-6-cyclopentyl-4-hydroxy-3-(1H-imidazo[4,5-b]pyridin-2-ylthio)-5,6-dihydro-2H-pyran-2-one]	7.46
COc1ccc(CCC2(C3CCCC3)CC(O)=C(Sc3nc4ccccc4n3C(C)C)C(=O)O2)cc1Cl (stereo not drawn) [C(44), 6-[2-(3-chloro-4-methoxyphenyl)ethyl]-6-cyclopentyl-4-hydroxy-3-[(1-isopropyl-1H-benzimidazol-2-yl)thio]-5,6-dihydro-2H-pyran-2-one]	6.74
COc1ccc(CCC2(C3CCCC3)CC(O)=C(Sc3nc4ccccc4s3)C(=O)O2)cc1Cl (stereo not drawn) [C(45), 3-(1,3-benzothiazol-2-ylthio)-6-[2-(3-chloro-4-methoxyphenyl)ethyl]-6-cyclopentyl-4-hydroxy-5,6-dihydro-2H-pyran-2-one]	5.49
COc1ccc(CCC2(C3CCCC3)CC(O)=C(Sc3nc4cnccc4[nH]3)C(=O)O2)cc1Cl (stereo not drawn) [C(46), 6-[2-(3-chloro-4-methoxyphenyl)ethyl]-6-cyclopentyl-4-hydroxy-3-(1H-imidazo[4,5-c]pyridin-2-ylthio)-5,6-dihydro-2H-pyran-2-one]	7.43
COc1ccc(CCC2(C3CCCC3)CC(O)=C(Sc3nc4cccnc4s3)C(=O)O2)cc1Cl (stereo not drawn) [C(47), 6-[2-(3-chloro-4-methoxyphenyl)ethyl]-6-cyclopentyl-4-hydroxy-3-([1,3]thiazolo[5,4-b]pyridin-2-ylthio)-5,6-dihydro-2H-pyran-2-one]	6.62
COc1ccc(CCC2(C3CCCC3)CC(O)=C(Sc3nc4ccccc4n3-c3ccccc3)C(=O)O2)cc1Cl (stereo not drawn) [C(48), 6-[2-(3-chloro-4-methoxyphenyl)ethyl]-6-cyclopentyl-4-hydroxy-3-[(1-phenyl-1H-benzimidazol-2-yl)thio]-5,6-dihydro-2H-pyran-2-one]	6.85
COc1ccc(CCC2(C3CCCC3)CC(O)=C(Sc3nc4cc(Cl)ccc4[nH]3)C(=O)O2)cc1Cl (stereo not drawn) [C(49), 3-[(5-chloro-1H-benzimidazol-2-yl)thio]-6-[2-(3-chloro-4-methoxyphenyl)ethyl]-6-cyclopentyl-4-hydroxy-5,6-dihydro-2H-pyran-2-one]	7.10
COc1ccc(CCC2(C3CCCC3)CC(O)=C(Sc3nnc(-c4ccncc4)[nH]3)C(=O)O2)cc1Cl (stereo not drawn) [C(50), 6-[2-(3-chloro-4-methoxyphenyl)ethyl]-6-cyclopentyl-4-hydroxy-3-[(5-pyridin-4-yl-4H-1,2,4-triazol-3-yl)thio]-5,6-dihydro-2H-pyran-2-one]	8.00
COc1ccc(CCC2(C3CCCC3)CC(O)=C(Sc3nnc(-c4ccncc4)o3)C(=O)O2)cc1Cl (stereo not drawn) [C(51), 6-[2-(3-chloro-4-methoxyphenyl)ethyl]-6-cyclopentyl-4-hydroxy-3-[(5-pyridin-4-yl-1,3,4-oxadiazol-2-yl)thio]-5,6-dihydro-2H-pyran-2-one]	6.59
COc1ccc(CCC2(C3CCCC3)CC(O)=C(Sc3nc4cc(F)ccc4[nH]3)C(=O)O2)cc1Cl (stereo not drawn) [C(52), 6-[2-(3-chloro-4-methoxyphenyl)ethyl]-6-cyclopentyl-3-[(5-fluoro-1H-benzimidazol-2-yl)thio]-4-hydroxy-5,6-dihydro-2H-pyran-2-one]	6.85

Source: US7473790B2 (Pfizer Inc., priority 2003, dated 2009)
